According to US7008949B2, “Heterocyclic compounds which inhibit leukocyte adhesion mediated by α4 integrins” (Elan Pharmaceuticals, Inc., priority 2003, dated 2006):
Values after ≈ are worked out from the molar mass of the structure shown.

Key:
[1] = target: T1, α4β1 Integrin (Homo sapiens, UniProt P05556+P13612); experiment: α4β1 Integrin Adhesion Assay: Jurkat cell adhesion to human plasma fibronectin; type: cell-based; details: Jurkat cells
T1 construct: endogenous in cells; host or cells: Jurkat cells
T1 sequence (P13612 34-1032): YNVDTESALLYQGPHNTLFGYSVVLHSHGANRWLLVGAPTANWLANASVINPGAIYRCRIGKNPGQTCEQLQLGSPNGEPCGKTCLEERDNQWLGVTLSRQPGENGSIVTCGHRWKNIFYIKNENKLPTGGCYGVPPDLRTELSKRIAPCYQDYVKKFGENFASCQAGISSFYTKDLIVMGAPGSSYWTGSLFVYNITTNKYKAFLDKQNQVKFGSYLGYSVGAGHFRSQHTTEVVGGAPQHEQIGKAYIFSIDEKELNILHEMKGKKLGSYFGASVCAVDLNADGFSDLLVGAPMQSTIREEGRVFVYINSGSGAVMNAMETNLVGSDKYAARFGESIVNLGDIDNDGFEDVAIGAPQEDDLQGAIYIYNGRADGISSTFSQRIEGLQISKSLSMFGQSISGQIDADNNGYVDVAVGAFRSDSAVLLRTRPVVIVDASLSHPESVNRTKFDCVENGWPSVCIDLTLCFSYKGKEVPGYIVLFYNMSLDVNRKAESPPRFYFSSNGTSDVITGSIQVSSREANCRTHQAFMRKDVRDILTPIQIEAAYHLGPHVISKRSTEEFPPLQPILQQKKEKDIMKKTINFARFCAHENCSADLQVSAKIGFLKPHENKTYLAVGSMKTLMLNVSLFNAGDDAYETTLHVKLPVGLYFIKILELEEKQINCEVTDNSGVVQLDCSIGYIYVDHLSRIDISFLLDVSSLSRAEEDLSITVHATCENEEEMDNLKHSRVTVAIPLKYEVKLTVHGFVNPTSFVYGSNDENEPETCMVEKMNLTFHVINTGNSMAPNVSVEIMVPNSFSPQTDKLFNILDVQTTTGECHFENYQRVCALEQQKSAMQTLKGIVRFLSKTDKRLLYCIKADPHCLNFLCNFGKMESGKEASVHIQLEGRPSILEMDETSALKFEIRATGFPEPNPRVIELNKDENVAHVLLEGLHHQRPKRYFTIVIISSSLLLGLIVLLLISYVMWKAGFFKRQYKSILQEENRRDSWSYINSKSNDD
T1 sequence (P05556 21-798): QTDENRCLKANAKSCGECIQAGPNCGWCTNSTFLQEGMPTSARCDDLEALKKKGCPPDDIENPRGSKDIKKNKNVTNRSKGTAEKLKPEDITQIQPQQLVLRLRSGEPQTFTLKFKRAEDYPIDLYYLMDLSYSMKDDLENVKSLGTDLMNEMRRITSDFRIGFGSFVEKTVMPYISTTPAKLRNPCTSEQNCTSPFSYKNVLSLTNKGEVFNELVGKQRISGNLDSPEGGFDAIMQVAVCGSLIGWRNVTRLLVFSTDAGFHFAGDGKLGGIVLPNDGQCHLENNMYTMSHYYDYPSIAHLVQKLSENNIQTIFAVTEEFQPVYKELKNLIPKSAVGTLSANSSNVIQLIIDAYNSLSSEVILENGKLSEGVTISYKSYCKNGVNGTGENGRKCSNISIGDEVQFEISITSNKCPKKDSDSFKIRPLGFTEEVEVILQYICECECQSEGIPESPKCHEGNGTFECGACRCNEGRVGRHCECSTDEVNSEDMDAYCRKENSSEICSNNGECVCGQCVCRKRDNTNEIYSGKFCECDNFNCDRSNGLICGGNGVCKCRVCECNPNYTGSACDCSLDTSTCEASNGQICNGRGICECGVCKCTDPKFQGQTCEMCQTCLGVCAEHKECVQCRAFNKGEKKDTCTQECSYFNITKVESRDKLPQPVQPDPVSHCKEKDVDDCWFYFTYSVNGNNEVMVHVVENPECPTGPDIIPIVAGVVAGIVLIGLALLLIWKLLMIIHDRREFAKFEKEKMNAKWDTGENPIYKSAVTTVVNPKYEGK
Description: 96 well plates (Costar 3590 EIA plates) were coated with human fibronectin (Gibco/BRL, cat #33016-023) at a concentration of 10 μg/mL overnight at 4° C. The plates were then blocked with a solution of bovine serum albumin (BSA; 0.3%) in saline. Jurkat™ cells (maintained in log phase growth) were labeled with Calcein AM according to the manufacturer's instructions, and suspended at a concentration of 2×10^6 cells/mL in Hepes/Saline/BSA. The cells were then exposed to test and control compounds for 30 minutes at room temperature before transfer to individual wells of the fibronectin coated plate. Adhesion was allowed to occur for 35 minutes at 37° C. The wells were then washed by gentle aspiration and pipetting with fresh saline. Fluorescence associated with the remaining adherent cells was quantified using a fluorescence plate reader at EX 485/EM 530.
Cell cultures were prepared by first splitting the stationary phase Jurkat™ cells at 1:10 on day one, and 1:2 on day two to perform assay on day 3. The cells split 1:10 on day one were split 1:4 on day 3 for a day 4 assay.
The assay plates were prepared by first making a working solution of Gibco/BRL Human Fibronectin (cat # 33016-023) in PBS++, at 10 μg/mL.
A Costar 3590 EIA plate was then coated with 50 μL/well for 2 hours at room temperature (thought it can also be left overnight at 4° C.). Finally the plate was asperated and blocked with Hepes/Saline Buffer, 100 μL/well, for 1 hour at RT followed by washing three times with 150 μL of PBS++.
Compound dilutions were accomplished by preparing 1:3 serial dilutions of compounds as follows. For each plate (4 compounds/plate) 600 μL were added to 4 Bio-Rad Titertubes in a Titertube rack. Enough compound was added to each appropriate tube to give a 2× concentration using methods well known in the art. Using Falcon Flexiplates, 100 μL of Hepes/Saline buffer or human serum were added to rows B through G. A multi-channel pipetter set to 180 μL was used to with four tips spaced evenly the pipetter. Each set of four tubes was mixed 5 times and 180 μL of 2× compound was transferred to the first column of each compound dilution in Row B, leaving Row A empty. 180 μL were added to the other wells in Row A. Serial dilutions were performed down the plate by transferring 50 μL to the next dilution and mixing 5 times, changing tips each time after mixing. Dilutions were stopped at Row F. Row G had no compound present.
A 20 μg/mL solution in Hepes/Saline buffer or human serum, of 21/6 antibody was the positive control and was set aside in a reagent trough to add to cell suspension plate.
The cell staining was accomplished by first harvesting the log-phase Jurkat™ cells by centrifugation in 50 mL tubes (1100 rpm for 5 minutes). The cells were resuspended in 50 mL PBS++, spun, and resuspend in 20 mL PBS++. The cells were stained by adding 20 μL of Calcein AM for 30 minutes R.T. The volume was brought to 50 mL with Hepes/Saline buffer and the cells were counted, spun, and resuspend to 2×10^6 cells/mL in Hepes/Saline buffer or human serum.
The compounds were incubated using the following procedure. In a new flexiplate, 65 μL of stained cells were added to Rows B through H. Then 65 μL of 2× compounds were added to the appropriate rows following the plate setup and mixed 3×. 65 μL of 2×-21/6 antibody were added to Row H and mixed 3×. Finally the plate was incubated at room temperature for 30 minutes.
Fibronectin adhesion was measured using a fluorescent plate reader at EX 485/EM 530 after the following work up procedure. After incubation, the cells were mixed 3× and 100 μL were transferred to the Fibronectin coated plates and incubated at 37° C. for about 35 minutes. Each plate was washed, row by row, by gently pipetting 100 μL of R.T. PBS++ down the sides of the wells and turning the plate 90 degrees to aspirate. This procedure was repeated for a total of 3 washes. Each well was filled with 100 μL after washing by pipetting down the side of the well. […]

[2] = Cassette dosing and serum analysis for determination of oral bioavailability; type: in vivo, rat; details: male SD rats, oral cassette of 6 compounds, total dose 10 mg/kg, plasma at 4, 8, 12 h
Description: The oral bioavailability was screened by dosing rats with a cassette, i.e. mixture of 6 compounds per dosing solution. The cassette included 5 test articles and a standard compound, for a total dose of 10 mg/kg. Each compound/test article was converted to the sodium salt with equimolar 1 N NaOH and dissolved in water at 2 mg/mL. The cassette was prepared by mixing equal volumes of each of the six solutions. The cassette dosing solution was mixed well and then the pH was adjusted to 7.5–9. The dosing solution was prepared the day before the study and stirred overnight at room temperature.
Male Sprague Dawley (SD) rats from Charles River Laboratories, 6–8 weeks old were used in this screen. Rats were quarantined for at least one day and had continuous access to food and water. On the night before the administration of the cassette, the rats were fasted for approximately 16 h.
Four SD rats were assigned in each cassette. A single dose of the dosing solution was administered orally to each rat. The dosing volume (5 mL/kg) and time were recorded and rats were fed 2 h after dosing.
Blood samples were collected via cardiac puncture at the following time points: 4 h, 8 h and 12 h. Immediately prior to blood collection, rats were anesthetized with CO2 gas within 10–20 seconds. After the 12-hour samples were collected, the rats were euthanized via CO2 asphyxiation followed by cervical dislocation.
Blood samples were kept in heparinized microtainer tubes under sub-ambient temperature (4° C.) before they were processed. Blood samples were centrifuged (10000 rpm for 5 minutes) and plasma samples were removed and stored in a −20° C. freezer until analyzed for drug levels. Drug levels in the plasma were analyzed using the following protocol for direct plasma precipitation.
The in vivo plasma samples were prepared in a 1.5 mL 96-well plate, by adding, in order, 100 μL of the test plasma, 150 μL of methanol, followed by vortexing for 10–20 seconds. 150 μL of 0.05 ng/μL of an Internal Standard in acetonitrile were added and vortexed for 30 seconds.
The standard curve samples were prepared in a 1.5 mL 96-well plate, by adding, in order, 100 μL of control mouse plasma, followed by 150 μL of methanol and vortexing for 10–20 seconds. 150 μL of 0.05 ng/μL of an Internal Standard in acetonitrile were added and vortexed for 30 seconds. The samples were spiked with 0–200 ng (10 concentrations) of the compound of interest in 50% methanol to obtain a standard curve range of 0.5 ng/mL–2,000 ng/mL. Again, the sample was vortexed for 30 seconds.
The samples were then spun for 20–30 minutes at 3000 rpm in an Eppendorf microfuge before 80–90% of supernatant was transferred into a clean 96-well plate. The organic solvent was then evaporated until the samples were dry (under N2 at 40° C./30–60 min (ZymarkTurbovap)).
The residue was then dissolved in […] mobile phase (50% CH3OH/0.1% TFA). LC/MS/MS was then run using a PE-Sciex API-3000 triple quadurpole mass spectrometer (SN0749707), Perkin-Elmer, Series200auto-sampler, and shimadzu 10A pump. Acquisition was done with PE-Sciex Analyst (v1.1) and data analysis and quantification were accomplished using PE-Sciex Analyst (v1.1). A 5–50 μL sample volume was injected onto a reverse phase ThermoHypersil DASH-18 column (Keystone 2.0×20 mm, 5 μm, PN: 8823025-701) using a mobile phase of 25% CH3OH, 0.1% TFA-100% CH3OH, 0.1% TFA. The run time was about 8 minutes at a flow rate of about 300 μL/minutes.
The Area Under the Curve (AUC) was calculated using the linear trapezoidal rule from t=0 to the last sampling time tx (see Handbook of Basic Pharmacokinetics, Wolfgang A. Ritschel and Gregory L. Kearns, 5th ed, 1999). AUC^0→tx═S((Cn+Cn+1)/2))·(tn+1−tn)[(μg/mL)h]
In the case of the cassette dosing paradigm, samples at 4, 8 and 12 h post extravascular dosing, the AUC was calculated from t=0 to t=12 h.

[3] = IC50, Cell Adhesion to Human Plasma Fibronectin (With Human Serum), with human serum
[4] = IC50, Cell Adhesion to Human Plasma Fibronectin (Without the Human Serum), without human serum

Row | Compound | IC50, Cell Adhesion to Human Plasma Fibronectin (With Human Serum) ([1]; with human serum) [µg/mL] | IC50, Cell Adhesion to Human Plasma Fibronectin (Without the Human Serum) ([1]; without human serum) [µg/mL] | AUC (average AUC 0→12 h) [2] | IC50 [1, 3] [nM] | IC50 [1, 4] [nM]
1 | CCN(CC)c1ncc(N(C)S(=O)(=O)c2cc(F)ccc2F)c(NC(Cc2ccc(OC(=O)N(C)C)cc2)C(=O)O)n1 (stereo not drawn) [Example 25] | 6.72 (≈ 11.1 µM) | 0.006 (≈ 0.00989 µM) | 0.4559 (μg/mL)h | – | –
2 | CCN(CC)c1ncc(N(CC)S(=O)(=O)c2cccc(F)c2F)c(NC(Cc2ccc(OC(=O)N(C)C)cc2)C(=O)O)n1 (stereo not drawn) [Example 26, 2-{2-diethylamino-5-[(2.3-difluorobenzenesulfonyl)ethylamino]pyrimidin-4-ylamino}-3-(4-dimethylcarbamoyloxyphenyl) propionic acid] | 0.01848 (≈ 0.0298 µM) | 0.001 (≈ 0.00161 µM) | 0.3392 (μg/mL)h | – | –
3 | C#CCN(c1cnc(N(CC)CC)nc1N[C@@H](Cc1ccc(OC(=O)N(C)C)cc1)C(=O)O)S(=O)(=O)c1ccc(F)cc1 [Example 27] | – | – | 1.6258 (μg/mL)h | 106 | 1.63
4 | C#CCN(c1cnc(N(CC)CC)nc1NC(Cc1ccc(OC(=O)N(C)C)cc1)C(=O)O)S(=O)(=O)c1ccc(F)cc1F (stereo not drawn) [Example 28, 2-{2-Diethylamino-5-[(2,4-difluorobenzenesulfonyl)propargylamino]pyrimidin-4-ylamino}-3-(4-dimethylcarbamoyloxyphenyl)propionic acid] | – | – | 0.7968 (μg/mL)h | 72.9 | 6.34
5 | CCN(CC)c1ncc(N(CC(F)(F)F)S(=O)(=O)c2ccc(F)cc2)c(NC(Cc2ccc(OC(=O)N(C)C)cc2)C(=O)O)n1 (stereo not drawn) [Example 29, 2-{2-diethylamino-5-[(4-fluorobenzenesulfonyl)-(2,2,2-trifluoroethyl)amino]pyrimidin-4-ylamino}-3-(4-dimethylcarbamoyloxyphenyl)propionic acid] | – | – | 0.2941 (μg/mL)h | 53 | 3.35
